Consider 15 molecules from paper PMC10012049, “Synthesis, α-mannosidase inhibition studies and molecular modeling of 1,4-imino-ᴅ-lyxitols and their C-5-altered N-arylalkyl derivatives” (Beilstein Journal of Organic Chemistry, 2023).

In assay [1] the target is T1, JBMan (Jack bean α-mannosidase) (Canavalia ensiformis, UniProt C0HJB3).
T1 construct: purchased Sigma
T1 sequence (C0HJB3 1-981): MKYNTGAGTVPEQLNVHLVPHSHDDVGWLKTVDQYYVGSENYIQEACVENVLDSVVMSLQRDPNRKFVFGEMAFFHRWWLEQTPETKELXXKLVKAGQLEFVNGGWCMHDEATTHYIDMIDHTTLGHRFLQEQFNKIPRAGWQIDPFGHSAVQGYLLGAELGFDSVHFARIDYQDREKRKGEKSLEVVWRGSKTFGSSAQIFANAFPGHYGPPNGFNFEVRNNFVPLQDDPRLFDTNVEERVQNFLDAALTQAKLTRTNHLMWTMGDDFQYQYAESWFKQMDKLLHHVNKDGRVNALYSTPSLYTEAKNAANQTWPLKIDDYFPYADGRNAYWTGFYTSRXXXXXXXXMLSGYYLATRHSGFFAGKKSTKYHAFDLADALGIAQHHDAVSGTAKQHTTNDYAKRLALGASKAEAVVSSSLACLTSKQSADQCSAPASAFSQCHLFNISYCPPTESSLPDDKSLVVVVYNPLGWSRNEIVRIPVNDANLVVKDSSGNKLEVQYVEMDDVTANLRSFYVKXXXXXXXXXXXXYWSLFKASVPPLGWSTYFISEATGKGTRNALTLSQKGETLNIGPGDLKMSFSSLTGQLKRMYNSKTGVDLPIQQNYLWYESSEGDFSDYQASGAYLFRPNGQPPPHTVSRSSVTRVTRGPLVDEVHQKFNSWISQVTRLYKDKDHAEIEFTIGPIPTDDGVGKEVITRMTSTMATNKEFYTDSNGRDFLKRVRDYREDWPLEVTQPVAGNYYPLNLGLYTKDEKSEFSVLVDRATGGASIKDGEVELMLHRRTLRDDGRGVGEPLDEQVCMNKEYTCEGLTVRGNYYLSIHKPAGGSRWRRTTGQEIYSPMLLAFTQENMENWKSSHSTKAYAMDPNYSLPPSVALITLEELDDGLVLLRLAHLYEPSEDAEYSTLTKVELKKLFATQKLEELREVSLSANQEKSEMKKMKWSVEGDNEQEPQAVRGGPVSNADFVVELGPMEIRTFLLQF
In words: α-mannosidase inhibition assay with pNP-Man substrate, JBMan. Format: biochemical. The following applies: for IC50: 2 mM pNP-Man, pH 5.0, 37 °C; for Ki: Dixon plots, pNP-Man 0.5-4 mM, pH 5.0. An excerpt: (§1) The enzymes screened included two Golgi types (GMIIb and AMAN-2) and two lysosomal types (LManII and JBMan) (Table 1).
(§2) Recombinant soluble forms of Drosophila melanogaster Golgi (GMIIb) and lysosomal (LManII) α-mannosidases as well as Caenorhabditis elegans Golgi α-mannosidase AMAN-2 were produced in Pichia pastoris and enriched by ammonium sulfate precipitation or nickel chelation chromatography as previously described. The α-mannosidase from Canavalia ensiformis (JBMan) was purchased from Sigma. […]
(§3) GMIIb was assayed in the […]
(§4) presence of 0.5 mM CoCl2.
(§5) The lyophilized derivatives used in the assay were dissolved in DMSO to the final concentration 50 mM and further diluted to a desired concentration in water. These derivatives were preincubated with the enzyme in the buffer for 5 min at rt and the reaction was started by addition of the substrate. The reactions were terminated with two volumes (0.1 mL) of 0.5 M sodium carbonate and the production of p-nitrophenol was measured at 405 nm using a multimode reader Mithras LB943 (Berthold Technologies). The average or representative result of three independent experiments made in duplicate is presented.

For assay [2], the target named is T2, LManII (lysosomal α-mannosidase) (Drosophila melanogaster, UniProt Q9VKV1). In words: α-mannosidase inhibition assay with pNP-Man substrate, LManII. Format: biochemical. The following applies: for Ki: Dixon plots, pNP-Man 0.5-4 mM, pH 5.2.
T2 sequence (Q9VKV1 entry or part of it): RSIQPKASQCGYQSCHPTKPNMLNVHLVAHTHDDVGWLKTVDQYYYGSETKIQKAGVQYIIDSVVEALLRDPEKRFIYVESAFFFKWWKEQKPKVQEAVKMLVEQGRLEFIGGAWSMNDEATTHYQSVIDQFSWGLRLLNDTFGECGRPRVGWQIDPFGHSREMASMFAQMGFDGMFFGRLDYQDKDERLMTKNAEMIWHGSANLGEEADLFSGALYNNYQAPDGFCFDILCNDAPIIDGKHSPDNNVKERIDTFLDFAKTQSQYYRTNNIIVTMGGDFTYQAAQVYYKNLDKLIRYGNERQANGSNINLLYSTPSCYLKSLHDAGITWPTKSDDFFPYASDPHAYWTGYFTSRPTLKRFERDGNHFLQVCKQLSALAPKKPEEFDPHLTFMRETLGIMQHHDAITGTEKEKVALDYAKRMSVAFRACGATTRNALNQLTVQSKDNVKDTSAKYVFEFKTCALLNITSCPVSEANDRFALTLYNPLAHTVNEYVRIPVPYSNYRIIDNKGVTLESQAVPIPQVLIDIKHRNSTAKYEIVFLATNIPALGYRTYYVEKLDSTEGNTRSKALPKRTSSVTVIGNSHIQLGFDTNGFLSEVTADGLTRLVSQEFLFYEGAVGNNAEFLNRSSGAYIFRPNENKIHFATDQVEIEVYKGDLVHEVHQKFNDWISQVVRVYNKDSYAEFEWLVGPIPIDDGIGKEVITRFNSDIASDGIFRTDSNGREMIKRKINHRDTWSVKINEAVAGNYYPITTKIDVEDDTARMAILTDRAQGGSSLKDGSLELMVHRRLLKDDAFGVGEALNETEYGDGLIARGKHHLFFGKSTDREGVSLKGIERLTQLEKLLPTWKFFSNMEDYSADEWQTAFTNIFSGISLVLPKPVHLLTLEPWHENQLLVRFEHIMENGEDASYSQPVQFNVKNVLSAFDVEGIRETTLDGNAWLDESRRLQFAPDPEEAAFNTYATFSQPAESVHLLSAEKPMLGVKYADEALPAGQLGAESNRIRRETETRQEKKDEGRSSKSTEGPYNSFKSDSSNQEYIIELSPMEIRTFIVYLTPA
Source text: as §1, §2, §3, §4, §5

In assay [3] the target is T3, AMAN-2 (Golgi α-mannosidase II) (Caenorhabditis elegans, UniProt Q2PJ74). The assay is described as follows: α-mannosidase inhibition assay with pNP-Man substrate, AMAN-2. Format: biochemical. The note with it: Dixon plots, pNP-Man 0.5-4 mM, pH 6.0.
T3 sequence (Q2PJ74 entry or part of it): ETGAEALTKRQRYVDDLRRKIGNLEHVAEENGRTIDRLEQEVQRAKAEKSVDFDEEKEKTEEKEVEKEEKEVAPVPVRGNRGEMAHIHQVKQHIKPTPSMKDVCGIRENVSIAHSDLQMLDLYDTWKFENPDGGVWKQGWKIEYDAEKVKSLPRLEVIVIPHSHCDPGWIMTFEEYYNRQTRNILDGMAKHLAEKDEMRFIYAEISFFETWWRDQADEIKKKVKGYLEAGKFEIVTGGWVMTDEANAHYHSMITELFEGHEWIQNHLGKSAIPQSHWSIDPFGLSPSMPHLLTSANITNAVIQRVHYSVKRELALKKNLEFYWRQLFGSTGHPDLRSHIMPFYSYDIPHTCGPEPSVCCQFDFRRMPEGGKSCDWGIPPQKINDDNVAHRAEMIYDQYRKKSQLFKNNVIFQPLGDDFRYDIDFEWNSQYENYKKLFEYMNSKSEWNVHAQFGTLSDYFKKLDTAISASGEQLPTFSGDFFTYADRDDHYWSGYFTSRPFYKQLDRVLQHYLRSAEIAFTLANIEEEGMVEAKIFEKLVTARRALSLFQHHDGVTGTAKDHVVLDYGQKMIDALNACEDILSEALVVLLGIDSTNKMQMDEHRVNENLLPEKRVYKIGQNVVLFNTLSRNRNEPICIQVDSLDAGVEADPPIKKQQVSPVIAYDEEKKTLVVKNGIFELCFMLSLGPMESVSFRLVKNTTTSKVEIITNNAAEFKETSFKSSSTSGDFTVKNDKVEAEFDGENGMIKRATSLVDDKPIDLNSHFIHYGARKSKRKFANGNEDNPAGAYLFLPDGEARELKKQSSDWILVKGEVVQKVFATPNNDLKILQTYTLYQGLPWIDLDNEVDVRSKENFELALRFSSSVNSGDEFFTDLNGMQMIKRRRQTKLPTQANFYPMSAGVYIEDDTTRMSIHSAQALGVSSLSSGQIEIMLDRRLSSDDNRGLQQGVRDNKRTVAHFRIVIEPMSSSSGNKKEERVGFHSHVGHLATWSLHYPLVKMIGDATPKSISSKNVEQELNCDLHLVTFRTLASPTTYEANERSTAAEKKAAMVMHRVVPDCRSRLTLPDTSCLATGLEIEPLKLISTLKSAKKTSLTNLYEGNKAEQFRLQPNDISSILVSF
In assay [4] the target is T3, AMAN-2 (Golgi α-mannosidase II). The assay is described as above. Format: biochemical. The note with it: for Selectivity index, SI [Ki (JBMan)/Ki (AMAN-2)]: ratio of Ki values; for SI [IC50 (JBMan)/IC50 (AMAN-2)]: ratio of IC50 values; for times more potent toward AMAN-2 than DIM: relative to DIM.
Source text: as §1
Recombinant soluble forms of Drosophila melanogaster Golgi (GMIIb) and lysosomal (LManII) α-mannosidases as well as Caenorhabditis elegans Golgi α-mannosidase AMAN-2 were produced in Pichia pastoris and enriched by ammonium sulfate precipitation or nickel chelation chromatography as previously described. The α-mannosidase from Canavalia ensiformis (JBMan) was purchased from Sigma. The mannosidase activity of these enzyme preparations were measured using p-nitrophenyl α -D-mannopyranoside ( pNP-Man; Sigma; 100 mM stock in dimethylsulfoxide) as a substrate at 2 mM final concentration in 50 mM acetate buffer of the relevant previously defined optimal pH, GMIIb and AMAN -2 at pH 6.0, LManII at pH 5.2 , and JBMan at pH 5.0) and 0.5 μL of the enzyme (0.05 µg of protein for JBMan), in a total volume of 50 μL for 1–2 h at 37 °C. GMIIb was assayed in the presence of 0.5 mM CoCl2.
as §5

The target in assay [5] is T4, GMIIb (Golgi α-mannosidase) (Drosophila melanogaster, UniProt Q9VF33). In words: α-mannosidase inhibition assay with pNP-Man substrate, GMIIb. Format: biochemical. The following applies: for Ki: Dixon plots, pNP-Man 0.5-4 mM, pH 6.0.
T4 sequence (Q9VF33 entry or part of it): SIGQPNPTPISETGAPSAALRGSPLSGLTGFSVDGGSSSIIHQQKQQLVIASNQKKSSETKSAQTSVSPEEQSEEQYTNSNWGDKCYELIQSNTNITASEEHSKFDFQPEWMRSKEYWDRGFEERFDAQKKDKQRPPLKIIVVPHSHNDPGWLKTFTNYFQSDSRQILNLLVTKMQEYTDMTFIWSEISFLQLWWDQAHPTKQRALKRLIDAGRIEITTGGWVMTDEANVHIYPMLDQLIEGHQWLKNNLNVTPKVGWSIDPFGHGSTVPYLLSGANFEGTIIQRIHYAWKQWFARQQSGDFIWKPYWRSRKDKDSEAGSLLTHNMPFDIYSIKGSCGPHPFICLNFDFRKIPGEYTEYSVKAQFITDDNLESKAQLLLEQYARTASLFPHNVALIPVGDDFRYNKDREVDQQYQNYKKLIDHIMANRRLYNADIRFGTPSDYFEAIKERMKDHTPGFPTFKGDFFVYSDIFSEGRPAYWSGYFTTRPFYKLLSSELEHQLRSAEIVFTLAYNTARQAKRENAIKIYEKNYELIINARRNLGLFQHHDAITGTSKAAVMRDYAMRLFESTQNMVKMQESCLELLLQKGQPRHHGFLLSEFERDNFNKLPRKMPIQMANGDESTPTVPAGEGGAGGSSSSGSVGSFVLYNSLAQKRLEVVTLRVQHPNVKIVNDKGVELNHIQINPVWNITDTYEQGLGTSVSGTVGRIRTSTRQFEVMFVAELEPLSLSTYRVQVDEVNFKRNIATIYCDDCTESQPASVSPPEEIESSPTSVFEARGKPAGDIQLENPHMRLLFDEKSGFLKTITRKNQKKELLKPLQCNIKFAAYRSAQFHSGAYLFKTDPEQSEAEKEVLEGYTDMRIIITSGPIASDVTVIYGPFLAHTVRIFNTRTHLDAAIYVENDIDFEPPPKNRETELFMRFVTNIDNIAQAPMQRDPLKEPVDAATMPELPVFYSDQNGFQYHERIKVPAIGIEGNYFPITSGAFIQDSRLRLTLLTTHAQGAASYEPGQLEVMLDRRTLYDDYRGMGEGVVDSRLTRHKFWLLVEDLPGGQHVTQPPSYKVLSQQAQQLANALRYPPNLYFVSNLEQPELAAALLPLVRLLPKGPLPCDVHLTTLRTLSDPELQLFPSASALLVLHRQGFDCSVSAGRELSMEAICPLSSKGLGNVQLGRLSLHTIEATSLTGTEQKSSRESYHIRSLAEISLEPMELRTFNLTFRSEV
Source text: as §1, §2, §3, §4, §5

The target of assay [6] is T1, JBMan (Jack bean α-mannosidase). The note with it: ref Kóňa et al. [22]; cited from earlier work.
In assay [7] the target is T3, AMAN-2 (Golgi α-mannosidase II). The following applies: cited from earlier work; for IC50: ref Kóňa et al. [22].
The target of assay [8] is T2, LManII (lysosomal α-mannosidase). The following applies: ref Kóňa et al. [22]; cited from earlier work.
The target in assay [9] is T4, GMIIb (Golgi α-mannosidase). The note with it: ref Kóňa et al. [22]; cited from earlier work.
The mark [10] stands for this setting: 2 mM pNP-Man, pH 5.2, 37 °C, read-out: IC50 LManII.
Setting [11] is: 2 mM pNP-Man, pH 6.0, 37 °C, read-out: IC50 AMAN-2.
Setting [12] is: 2 mM pNP-Man, pH 6.0, 0.5 mM CoCl2, 37 °C, read-out: IC50 GMIIb.

Where two headings read alike, the source gives them in different places. Marks after values point to notes of the source that are not given here. Bounds are passed on as bounds.

Consider `OC[C@@H](O)[C@H]1NC[C@@H](O)[C@H]1O` [DIM, 1,4-dideoxy-1,4-imino-ᴅ-mannitol, reference compound], for which the IC50 (commonly the concentration needed to halve the response being measured) in [1] is 0.72 ± 0.03 µM; in assay [2] (setting [10]), 2.55 ± 0.1 µM; in [4] (setting [11]), 0.81 ± 0.03 µM; in assay [5] (setting [12]), 0.19 ± 0.04 µM. Moreover, the Ki (commonly a measure of affinity in units of concentration, obtained from inhibition or displacement) was 0.38 µM in assay [1], 1.95 µM in [2], 0.68 µM in [3] and 0.13 µM in assay [5]. Besides, the “Selectivity index, SI [Ki (JBMan)/Ki (AMAN-2)]” value (from here on “Selectivity index, SI”) in assay [4] was determined as 0.6.

Turning to `C[C@@H]1[C@H](O)[C@H](O)CN1Cc1ccccc1` [compound 7], the IC50 in assay [1] is > 4000 µM; in assay [2] (setting [10]), > 4000 µM; in assay [4] (setting [11]), 975 ± 25 µM; in assay [5] (setting [12]) it was 245 ± 35 µM.

Turning to `C[C@@H]1[C@H](O)[C@H](O)CN1Cc1ccc(I)cc1` [compound 8], the IC50 is > 4000 µM in assay [1], > 4000 µM in assay [2] (setting [10]), 385 ± 15 µM in [4] (setting [11]) and 205 ± 35 µM in [5] (setting [12]).

Turning to `C[C@@H]1[C@H](O)[C@H](O)CN1Cc1ccc2ccccc2c1` [compound 9], the IC50 was > 4000 µM in assay [1], > 4000 µM in assay [2] (setting [10]), 605 ± 35 µM in [4] (setting [11]) and 310 ± 22 µM in assay [5] (setting [12]).

Consider `C[C@H]1NC[C@@H](O)[C@H]1O` [compound 10], for which the IC50 in assay [1] was 2880 ± 275 µM; in [2], > 4000 µM; in assay [4] it was 415 ± 15 µM; in assay [5], 525 ± 25 µM.

Take `C[C@H](O)[C@@H]1[C@H](O)[C@H](O)CN1Cc1ccccc1` [compound 17]: the IC50 is > 4000 µM in assay [1], > 4000 µM in assay [2] (setting [10]), 990 ± 10 µM in [4] (setting [11]) and 335 ± 37 µM in assay [5] (setting [12]).

As to `C[C@H](O)[C@@H]1[C@H](O)[C@H](O)CN1Cc1ccc(I)cc1` [compound 18], the IC50 was > 4000 µM in assay [1], > 4000 µM in assay [2] (setting [10]), 205 ± 5 µM in assay [4] (setting [11]) and 170 ± 10 µM in assay [5] (setting [12]).

Consider `C[C@H](O)[C@@H]1[C@H](O)[C@H](O)CN1Cc1ccc2ccccc2c1` [compound 19], for which the IC50 in [1] is > 4000 µM; in assay [2] (setting [10]) it was > 4000 µM; in assay [4] (setting [11]) it was 1680 ± 75 µM; in [5] (setting [12]) it was 860 ± 140 µM.

Turning to `C[C@H](O)[C@H]1NC[C@@H](O)[C@H]1O` [compound 20], the IC50 in assay [1] amounted to 105 ± 25 µM; in [2] (setting [10]), 295 ± 20 µM; in assay [4] (setting [11]), 48 ± 6 µM; in assay [5] (setting [12]), 30 ± 5 µM. Moreover, the “SI [IC50 (JBMan)/IC50 (AMAN-2)]” value in [4] is 2.2^b.

In the case of `C[C@@H](O)[C@@H]1[C@H](O)[C@H](O)CN1Cc1ccccc1` [compound 26], the IC50 is 298 ± 30 µM in [1], 505 ± 57 µM in assay [2] (setting [10]), 115 ± 18 µM in assay [4] (setting [11]) and 33 ± 3.7 µM in assay [5] (setting [12]). Also, the Ki in assay [1] is 80 µM; in assay [2], 270 µM; in assay [3], 58 µM; in [5] it was 16.2 µM. Moreover, in assay [4], the “Selectivity index, SI” value is 1.4.

In the case of `C[C@@H](O)[C@@H]1[C@H](O)[C@H](O)CN1Cc1ccc(I)cc1` [compound 27], the IC50 in assay [1] stood at 164 ± 28 µM; in assay [2] (setting [10]) it was 410 ± 80 µM; in assay [4] (setting [11]), 66 ± 10 µM; in [5] (setting [12]) it was 13 ± 5.5 µM. The Ki was 73 µM in [1], 263 µM in [2], 34 µM in assay [3] and 4.2 µM in assay [5]. In assay [4], the “Selectivity index, SI” value worked out at 2.1.

Turning to `C[C@@H](O)[C@@H]1[C@H](O)[C@H](O)CN1Cc1ccc2ccccc2c1` [compound 28], the IC50 in assay [1] is 78 ± 16 µM; in [2] (setting [10]), 118 ± 10 µM; in assay [4] (setting [11]), 22 ± 4 µM; in assay [5] (setting [12]), 13.5 ± 5.5 µM. Also, the Ki in assay [1] was 44 µM; in assay [2], 98 µM; in [3] it was 18 µM; in assay [5], 5.2 µM. In assay [4], the “Selectivity index, SI” value was found to be 2.4.

`C[C@@H](O)[C@H]1NC[C@@H](O)[C@H]1O` [compound 29, 6-deoxy-DIM]: the 50% inhibitory concentration (IC50) in [1] was 0.32 ± 0.11 µM; in assay [2] (setting [10]), 0.82 ± 0.19 µM; in assay [4] (setting [11]), 0.24 ± 0.05 µM; in assay [5] (setting [12]), 0.12 ± 0.02 µM. Further, the Ki in assay [1] is 0.12 µM; in assay [2], 0.38 µM; in assay [3] it was 0.19 µM; in assay [5], 0.065 µM. In addition, in assay [4], the “Selectivity index, SI” value came to 0.6. Moreover, the “times more potent toward AMAN-2 than DIM” value was ~4 times in [4] and 3.5 times in [4] (listed as 6-deoxy-DIM).

In the case of `OC[C@H]1NC[C@@H](O)[C@H]1O` [compound 30], the IC50 was 10.5 ± 1.3 µM in assay [6], 2.3 ± 0.1 µM in [7], 30.5 ± 3 µM in assay [8] and 3.9 ± 0.1 µM in [9]. Moreover, the Ki in assay [7] was 2.3 µM. Further, the “SI [IC50 (JBMan)/IC50 (AMAN-2)]” value in assay [4] is 5^b.

In the case of “N-2-naphthylmethyl 1,4-imino-ᴅ-lyxitol [compound 31]”, the IC50 in assay [6] was 1950 ± 250 µM; in [7], 2.4 ± 0.1 µM; in [8], 845 ± 170 µM; in assay [9], 7.6 ± 1.1 µM. In addition, the “SI [IC50 (JBMan)/IC50 (AMAN-2)]” value in assay [4] was 812^b.
